Key:
[1] = target: Human immunodeficiency virus type 1 reverse transcriptase (Human immunodeficiency virus 1, UniProt Q72547); test: Inhibition of wild type HIV-1 reverse transcriptase assessed as inhibition of biotin deoxyuridine triphosphate incorporation into […]
[2] = system: Human immunodeficiency virus 1; test: Antiviral activity against wild type HIV1 IIIB infected in human MT4 cells assessed as protection against virus-induced cytopathicity; type: functional, organism-based; settings: Human immunodeficiency virus 1, IIIB
[3] = system: Human immunodeficiency virus 1; test: Antiviral activity against HIV1 harboring Y188L mutant infected in human MT4 cells assessed as protection against virus-induced cytopathicity; type: functional, organism-based; settings: Human immunodeficiency virus 1, MT4
[4] = system: Human immunodeficiency virus 1; test: Antiviral activity against HIV1 harboring K103 N mutant infected in human MT4 cells assessed as protection against virus-induced cytopathicity; type: functional, organism-based; settings: Human immunodeficiency virus 1, MT4
[5] = Cytotoxicity against human MT4 cells assessed as reduction in cell viability; type: toxicity, cell-based
[6] = system: Human immunodeficiency virus 1; test: Antiviral activity against HIV1 harboring E138K mutant infected in human MT4 cells assessed as protection against virus-induced cytopathicity; type: functional, organism-based; settings: Human immunodeficiency virus 1, MT4
[7] = system: Human immunodeficiency virus 1; test: Antiviral activity against HIV1 harboring Y181C mutant infected in human MT4 cells assessed as protection against virus-induced cytopathicity; type: functional, organism-based; settings: Human immunodeficiency virus 1, MT4
[8] = system: Human immunodeficiency virus 1; test: Antiviral activity against HIV1 harboring L100I mutant infected in human MT4 cells assessed as protection against virus-induced cytopathicity; type: functional, organism-based; settings: Human immunodeficiency virus 1, MT4
[9] = Selectivity index, ratio of CC50 for cytotoxicity against human MT4 cells to EC50 for antiviral activity against wild type HIV1 IIIB infected in human MT4 cells; type: toxicity, cell-based; settings: read-out: Ratio CC50/EC50

| SMILES | IC50 [1] [µM] | EC50 [2] [µM] | EC50 [3] [µM] | EC50 [4] [µM] | CC50 [5] [µM] | EC50 [6] [µM] | EC50 [7] [µM] | EC50 [8] [µM] | selectivity ratio [9] |
| --- | --- | --- | --- | --- | --- | --- | --- | --- | --- |
| Cc1ccc(Sc2c(C3CC3)c(=O)[nH]c(=O)n2COCc2ccccc2)cc1 | 3.8 | 2.59 | > 31.8 | > 31.8 | 31.8 | 10.2 | 5.22 | 2.05 | 12 |
| O=c1[nH]c(=O)n(COCc2ccccc2)c(Sc2cc(F)cc(F)c2)c1C1CC1 | 0.1 | 0.036 | > 30 | 3.01 | 30 | 0.19 | 4.27 | 0.43 | 842 |
| Cc1cccc(Sc2c(C3CC3)c(=O)[nH]c(=O)n2COCc2ccccc2)c1 |  | 0.028 | > 32.5 | 2.76 | 32.5 | 0.16 | 2.56 | 0.17 | 1160 |
| O=c1[nH]c(=O)n(COCc2ccccc2)c(Sc2cccc(Br)c2)c1C1CC1 | 0.07 | 0.11 | > 26.5 | 3.64 | 26.5 | 0.24 | 3.09 | 0.37 | 239 |
| Cc1ccc(Sc2c(C3CC3)c(=O)[nH]c(=O)n2COCc2ccccc2)c(C)c1 | 5.39 | 4.75 | > 32.2 | > 32.2 | 32.2 | > 32.2 | > 32.2 | 4.75 | 7 |
| Cc1cccc(C)c1Sc1c(C2CC2)c(=O)[nH]c(=O)n1COCc1ccccc1 | 6.12 | 4.36 | > 30.3 | > 30.3 | 30.3 | > 30.3 | > 30.3 | > 7.42 | 7 |
| O=c1[nH]c(=O)n(COCc2ccccc2)c(Sc2cc(Cl)ccc2Cl)c1C1CC1 | 0.03 | 0.029 | 7.92 | 1.51 | 33.9 | 0.07 | 0.51 | 0.12 | 1140 |
| COc1ccc(Sc2c(C3CC3)c(=O)[nH]c(=O)n2COCc2ccccc2)cc1 |  | > 44.6 |  |  | 44.6 |  |  |  | < 1 |
| COc1ccccc1Sc1c(C2CC2)c(=O)[nH]c(=O)n1COCc1ccccc1 | 0.56 | 0.17 | > 33.6 | ≥ 9.28 | 33.6 | 0.83 | 3.82 | 0.61 | 197 |
| COc1cccc(Sc2c(C3CC3)c(=O)[nH]c(=O)n2COCc2ccccc2)c1 | 0.18 | 0.085 | > 33.1 | 9.31 | 33.1 | 0.49 | 5.1 | 0.27 | 383 |
| COc1cccc(OC)c1Sc1c(C2CC2)c(=O)[nH]c(=O)n1COCc1ccccc1 |  | 6.7 | > 284 | > 284 | > 284 | > 284 | > 284 | 144 | > 40 |
| Cc1ccccc1Sc1c(C2CC2)c(=O)[nH]c(=O)n1COCc1ccccc1 | 0.3 | 0.15 | > 30.1 | > 7.96 | 30.1 | 0.89 | 5.35 | 1.07 | 203 |
| Cc1cc(C)cc(Sc2c(C3CC3)c(=O)[nH]c(=O)n2COCc2ccccc2)c1 | 0.08 | 0.023 | 3.75 | 1.05 | 34 | 0.14 | 1.03 | 0.13 | 1480 |
| O=c1[nH]c(=O)n(COCc2ccccc2)c(Sc2cccc(Cl)c2Cl)c1C1CC1 | 1.22 | 0.8 | > 27.4 | > 27.4 | 27.4 | 0.67 | > 27.4 | 2.34 | 34 |
| O=c1[nH]c(=O)n(COCc2ccccc2)c(Sc2ccccc2Cl)c1C1CC1 | 0.09 | 0.053 | > 27.3 | 9.14 | 27.3 | 0.43 | 2.94 | 0.63 | 515 |
| O=c1[nH]c(=O)n(COCc2ccccc2)c(Sc2ccccc2F)c1C1CC1 | 0.06 | 0.043 | > 34.7 | 4.99 | 34.7 | 0.35 | 4.47 | 0.45 | 813 |
| Cc1c(Sc2ccccc2)n(COCCO)c(=O)[nH]c1=O [HEPT] |  | 7 |  |  | 740 |  |  |  | 106 |

| SMILES | IC50 [1] [µM] | EC50 [2] [µM] | EC50 [3] [µM] | EC50 [4] [µM] | CC50 [5] [µM] | EC50 [6] [µM] | EC50 [7] [µM] | EC50 [8] [µM] | selectivity ratio [9] |
| --- | --- | --- | --- | --- | --- | --- | --- | --- | --- |
| Cc1ccnc2c1NC(=O)c1cccnc1N2C1CC1 [NEVIRAPINE] |  | 0.086 | > 9.51 | 5.33 | > 9.51 | 0.14 | 7.04 | 1.28 |  |
| O=c1[nH]c(=O)n(COCc2ccccc2)c(Sc2ccc(Cl)cc2Cl)c1C1CC1 | 5.56 | 5.3 | > 30 | > 30 | 34 | > 30 | ≥ 11.1 | 4.43 | 6 |
| Cc1ccc(C)c(Sc2c(C3CC3)c(=O)[nH]c(=O)n2COCc2ccccc2)c1 | 0.08 | 0.071 | 19.1 | 4.16 | 74.8 | 0.23 | 2.01 | 0.19 | 1050 |
| COc1ccc(Sc2c(C3CC3)c(=O)[nH]c(=O)n2COCc2ccccc2)c(OC)c1 |  | > 30.9 |  |  | 30.9 |  |  |  | < 1 |
| CC(C)c1c(Sc2cccc3ccccc23)n(COCc2ccccc2)c(=O)[nH]c1=O |  | 0.063 |  |  | 34 |  |  |  | 565 |
| O=c1[nH]c(=O)n(COCc2ccccc2)c(Sc2ccc(Br)cc2)c1C1CC1 | 3.92 | 6.18 | > 25.9 | > 25.9 | 25.9 | 9.8 | 4.11 | 4.05 | > 4 |
| O=c1[nH]c(=O)n(COCc2ccccc2)c(Sc2cccc3ccccc23)c1C1CC1 |  | 0.84 | > 177 | > 177 | 30.7 | 31.6 | 24.5 | 23.1 | 36 |
| O=c1[nH]c(=O)n(COCc2ccccc2)c(Sc2cccc(F)c2)c1C1CC1 | 0.04 | 0.025 | > 38.8 | 2.99 | 38.8 | 0.13 | 3.36 | 0.25 | 1520 |
| O=c1[nH]c(=O)n(COCc2ccccc2)c(Sc2c(F)cccc2F)c1C1CC1 | 0.72 | 0.34 | > 29 | > 29 | 29 | 1.51 | > 29 | 2.01 | 89 |
| O=c1[nH]c(=O)n(COCc2ccccc2)c(Sc2ccc(F)cc2F)c1C1CC1 | 1.8 | 1.2 | > 33.5 | > 33.5 | 33.5 | 8.38 | ≥ 9.44 | 3.1 | 28 |
| O=c1[nH]c(=O)n(COCc2ccccc2)c(Sc2ccccn2)c1C1CC1 | 0.11 | 0.17 | > 49.9 | 6.12 | 167 | 0.25 | 3.99 | 0.39 | 1000 |
| Cc1cn([C@H]2C[C@H](N=[N+]=[N-])[C@@H](CO)O2)c(=O)[nH]c1=O [ZIDOVUDINE] | 2.2 | 0.028 | 0.029 | 0.026 | > 7.48 |  | 0.02 | 0.016 | > 309 |
| O=c1[nH]c(=O)n(COCc2ccccc2)c(Sc2ccncc2)c1C1CC1 | 0.63 | 22.2 | > 167 | 24 | 177 | 0.76 | 17.8 | 1.44 | 8 |
| O=c1[nH]c(=O)n(COCc2ccccc2)c(Sc2ccc(F)cc2)c1C1CC1 |  | 0.75 | > 40.8 | > 40.8 | 38.8 | 2.03 | 6.4 | 1.88 | 53 |
| COc1ccc(OC)c(Sc2c(C3CC3)c(=O)[nH]c(=O)n2COCc2ccccc2)c1 |  | 0.22 | > 33.4 | > 33.4 | 33.4 | 0.99 | 5.68 | 0.66 | 150 |
| O=c1[nH]c(=O)n(COCc2ccccc2)c(Sc2ccccc2)c1C1CC1 |  | 0.039 | > 30.7 | > 30.7 | 49.9 | 2.79 | 9.83 | 1.23 | 1250 |
| COc1cc(OC)cc(Sc2c(C3CC3)c(=O)[nH]c(=O)n2COCc2ccccc2)c1 |  | 0.77 | > 29.7 | > 29.7 | 29.7 | 3.07 | 9.63 | 1.79 | 38 |

Reference: ChEMBL document CHEMBL5331066, “Structure-guided design of novel HEPT analogs with enhanced potency and safety: From Isopropyl-HEPTs to Cyclopropyl-HEPTs” (Eur J Med Chem, 2023)
